Assay results taken from patent publication US20260328779A1, “METHODS AND COMPOSITIONS FOR THE DIAGNOSIS AND TREATMENT OF IGA NEPHROPATHY” (Beth Israel Deaconess Medical Center, Inc., priority 2022, published 2026).

What was measured:
[1] = tested on: anti-Tn IgM; test: Inhibition of anti-Tn antibody binding to Tn glycopeptide array; parameters: species or system human; conditions: glycomimetic 20 mM, 30 min at RT, anti-Tn antibodies C3
Method: The Tn glycopeptide microarray was prepared as previously described^77. Briefly, the glycopeptides printed on the microarray is as listed (FIG. 2). Purified anti-Tn antibodies (diluted to […] for IgM, and […] for IgG and IgA detection) in TSM binding buffer (20 mM Tris-HCl, pH 7.4, 150 mM NaCl, 2 mM CaCl2), 2 mM MgCl2, with 1% BSA and 0.05% Tween-20) were added to the respective array slides for 1 h at RT. Alexa Fluor #488-labeled goat anti-human IgM or goat anti-human IgG, or FITC-labeled goat anti-human IgA antibody at 1:400 dilution in TSM binding buffer was used for detection of IgM, IgG, and IgA within purified anti-Tn antibodies. Slides were analyzed on a Genepix^# 4300A microarray scanner (Molecular Devices). Images were analyzed with quantitation software (GenePix® Pro Microarray Analysis Software Ver. 7, Molecular Devices). For inhibition assay, a purified Tn(+)IgA1 produced from CosmcKO Dakiki cells was utilized (See Generation of CosmcKO Dakiki cells using CRISPR-Cas9 system for generating the antibody) to inhibit anti-Tn antibodies binding to microarray and Tn(−)IgA1 produced from Dakiki cells as a […]. Purified anti-Tn antibodies (Cl, 10 mg/ml) in TSM binding buffer was preincubated with 1 mg of purified Tn(+)IgA1, or Tn(−)IgA1 for 30 min at RT. […] Heat map and correlation map of binding preferences were analyzed using GLAD (Glycan Array Dashboard).

[2] = tested on: anti-Tn CICs; test: ELISA based glycomimetic inhibition assay (anti-Tn CICs binding to IgA1 glycopeptide); parameters: species or system human; conditions: ID18 with ID19 as baseline, serial dilution (1/3) starting at 10 mM
Method: IgA1 glycopeptides (ID18, or ID19 as listed in FIG. 2, 0.01 mg/well) were immobilized using immobilization buffer (NaHCO3/Na2CO3, pH 9.6) in a 96-well plate (Thermo Fisher Scientific, PolySorp) overnight at 4° C. The plate was washed 3× with TSM containing 0.05% tween-20 (TSMT) and added 5% (w/v) BSA in TSMT for 1 h at RT. The plate was incubated with 1 mg/ml of purified anti-Tn CICs from IgAN serum (P3, and pooled with P1-P10; Pmix) or healthy donors (C3, and pooled C1-C10; Cmix) in TSMT containing 0.5% BSA for 1 h at RT. The plate was washed 3× with TSMT and incubated for 1 h with HRP-conjugated goat anti-human IgM at 1:1,000 dilution in TSMT containing 0.5% BSA at RT. The plate was washed 3× with TSMT and developed using TMB substrate solution (Cat #ab171523, Abcam) for 30 min, and the reaction was stopped with 1N HCl. Absorbance (450 nm) was read on an ImageXpress #Pico (Molecular Devices). The half-maximal inhibitory concentration (IC50) was calculated with GraphPad Prism 6.0 (GraphPad Software, Inc.) after subtraction from ID19 as a baseline. For inhibition assay, purified anti-Tn CICs were preincubated with a serial dilution (1/3) of α-methylGalNAc or DiαGalNAc (starting at 10 mM) for 30 min at RT.

[3] = tested on: primary human renal mesangial cells; test: Inhibition of anti-Tn CICs-stimulated mesangial cell proliferation (Ki-67); assay type: cell-based; conditions: anti-Tn CICs purified from IgAN patients pretreated with 100 mM compound, 30 min at RT
Method: […] of serum was mixed with […] of Tn(+)matrix beads or mock beads overnight at 4° C. (10 rpm). Supernatant was collected after pelleting the beads at 500×g for 30 sec at 4° C. After two rounds of such sequential anti-Tn CICs immunodepletion (serum-ID) and its control (serum-Mock), collected serum was filtered by syringe filter unit (Cat #SLHP033RS, Millipore Sigma) before use. Cells were cultured at ~90% confluency in 96-well plate, and starved in Mesangial cell media (Cat #4201) with 0.5% FBS (Cat #0010) and 0.05× mesangial cell growth supplement (MsCGS, Cat #4252) from ScienCell for 24 h at 37° C. prior to stimulation. Cells were stimulated with 5% serum-Mock, 5% serum-ID with or without exogenous anti-Tn CICs (50 ng/[…]/well, total) for 24 h at 37° C. incubator. Cells were fixed with 4% PFA with 0.05% Triton-X-100 in PBS for 20 min at 4° C. Fixed cells were blocked with 5% (vol/vol) goat serum in PBS for 1 h at 4° C., and incubated with anti-Ki-67 antibody (SP6, rabbit IgG, Cat #CRM325B, Biocare Medical, diluted to 1:50) in PBS for 1 h at 4° C. Cells were washed 3× with chilled PBS, and incubated with Alexa Fluor #488-goat anti-rabbit IgG (Cat #A27034, Thermo Fisher Scientific) at 1:400 in PBS for 1 h at 4° C. in the dark. Cells were washed 3× with chilled PBS, and stained with DAPI (diluted to 0.1 mM) in PBS for 10 min at RT, and analyzed using a microscope (AMG EVOS FL digital inverted microscope, Fisher Scientific, ×400 magnification). For inhibition assay, anti-Tn CICs was preincubated with 100 mM α-methylGalNAc, or α-methylGlcNAc in PBS for 30 min at RT. Serum from three healthy controls (C3, C6, and pooled C1-C10; Cmix) and three IgAN (P5, P10, and pooled P1-P10; Pmix) were used in this assay. […] of serum with IgAN (P1-P20) or healthy control (C1-C20) was analyzed on SDS-PAGE gel, and stained with Coomassie.

Structure (SMILES) | inhibition of anti-Tn antibody (IgM) binding to Tn glycopeptide array [1] | inhibition of anti-Tn CICs binding to IgA1 glycopeptide [2] | inhibition of anti-Tn CICs binding to IgA1 glycopeptide ([2]; listed as Di αGalNAc) | inhibition of proliferative activity of anti-Tn CICs from IgAN patients toward mesangial cells [3]
CC(=O)N[C@H]1[C@@H](OCCSCCO[C@H]2O[C@H](CO)[C@H](O)[C@H](O)[C@H]2NC(C)=O)O[C@H](CO)[C@H](O)[C@@H]1O [DiαGalNAc, α-D-2-Ethylthio 2-acetamido-galactopyranosyl α-D-2-Ethylthio 2-acetamido-galactopyranoside] | higher inhibition compared to α-methylGalNAc | A higher inhibition of anti-Tn CICs binding | specifically inhibits the binding of anti-Tn CICs to IgA1 glycopeptide | 
CO[C@H]1O[C@H](CO)[C@@H](O)[C@H](O)[C@H]1NC(C)=O [α-methylGlcNAc, reference compound] |  |  |  | did not inhibit the mesangial cell proliferation
